Measurements as given in patent publication US11214803B2, “Modulators of YAP1 expression” (Ionis Pharmaceuticals, Inc., priority 2019, dated 2022).
Strand notation (5' to 3'): a small letter for the sugar, then the base; units joined by * are phosphorothioate-linked, units joined directly phosphodiester-linked; [ ] holds rarer units or linkages, { } end groups; capitals alone tell only the bases. e = 2'-O-(2-methoxyethyl) (MOE); k = constrained ethyl (cEt); [5mC] = 5-methylcytosine; d = 2'-deoxy (DNA); m = 2'-O-methyl

System: Yap1 mRNA
Assay: Antisense inhibition of human Yap1 in SNU-449 cells by modified oligonucleotides, single dose (Example 5, RTS36584)
Format: cell-based
Outline: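 Values are % of untreated control: Yap1 mRNA by quantitative RT-PCR (RTS36584), normalized to RIBOGREEN total RNA. Oligonucleotides were dosed at 2,000 nM, free uptake, in SNU-449 cells, with roughly 48 h exposure before RNA isolation.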

[1] = Table 39, SNU-449 cells, 10,000 cells per well, free uptake, 2,000 nM oligonucleotide, approx. 48 hours, RTS36584, normalized to RIBOGREEN, Yap1 mRNA relative to untreated control
[2] = Yap1 mRNA, percent of untreated control, modified oligonucleotides targeting SEQ ID NO: 1 and 2, Table 47
[3] = Table 41, SNU-449 cells, 10,000 cells per well, free uptake, 2,000 nM modified oligonucleotide, approximately 48 hours, RTS36584, normalized to RIBOGREEN, Yap1 mRNA relative to untreated control cells
[4] = Table 50, Yap1 mRNA remaining as percent of untreated control (UT), SNU-449 cells, single dose
[5] = Table 48, Yap1 mRNA level relative to untreated control, modified oligonucleotides targeting SEQ ID NO.: 1 and 2
[6] = Table 40 (separate experiment), SNU-449 cells, 10,000 cells per well, free uptake, 2,000 nM oligonucleotide, approx. 48 hours, RTS36584, normalized to RIBOGREEN, Yap1 mRNA relative to untreated control
[7] = Table 46, Yap1 mRNA as percent of untreated control, SNU-449 cells, single dose

“1198415 (kG*dA*dT*dT*dT*dA*dG*dG*dA*dT*dG*k[5mC]*eA*kT*eG*kG; antisense) [Compound 1198415]” was tested, and the “YAP1 (% UTC)” value [1] was 29 % UTC.

For “1197189 (antisense kT*kT*kT*dG*dG*dA*dA*dG*dA*dT*d[5mC]*dT*dG*kA*kA*kA) [Compound 1197189]”, the “YAP1 (% UT)” value [2] was 71 % UT.

For “1197179 (antisense kT*kG*kG*dA*dA*dA*dT*dT*dG*dT*d[5mC]*dT*d[5mC]*kA*kT*kG) [Compound 1197179]”, the “YAP1 (% UT)” value [2] was 16 % UT.

“1198787 (antisense kA*eG*kT*dG*dT*dA*dT*dG*dT*d[5mC]*dA*dG*eA*eA*kG*kA) [Compound 1198787]” was tested, and the “YAP1 (% UTC)” value [3] was 9 % UTC.

In the case of “1198625 (kG*kA*k[5mC]*dT*dA*dA*dG*dT*dA*dA*dG*dG*kT*kT*kT*e[5mC]; antisense) [Compound 1198625]”, the “YAP1 (% UT)” value [4] is reported as 64 % UT.

With “1198600 (antisense kG*kA*k[5mC]*dA*dA*d[5mC]*dT*d[5mC]*dT*dT*dA*dT*kA*kT*kG*eG) [Compound 1198600]” the “YAP1 (% UT)” value [4] was 72 % UT.

With “1197201 (antisense kT*k[5mC]*kT*dT*dA*dT*dA*dT*dG*dG*dT*dT*dT*kT*kG*kT) [Compound 1197201]” the “YAP1 (% UT)” value [5] was 46 % UT.

In the case of “1197202 (antisense kA*k[5mC]*kT*d[5mC]*dT*dT*dA*dT*dA*dT*dG*dG*dT*kT*kT*kT) [Compound 1197202]”, the “YAP1 (% UT)” value [5] is reported as 27 % UT.

In the case of “1198394 (kT*dT*dT*dT*dA*d[5mC]*dA*dT*dT*dA*dG*kG*eA*kA*e[5mC]*kA; antisense) [Compound 1198394]”, the “YAP1 (% UTC)” value [1] is reported as 63 % UTC.

“1198662 (antisense kT*kT*dT*dG*dG*dA*dA*dG*dA*dT*d[5mC]*dT*kG*eA*kA*eA) [Compound 1198662]” was tested, and the “YAP1 (% UTC)” value [3] was 83 % UTC.

In the case of “1009397 (kA*kA*k[5mC]*dA*d[5mC]*dT*dG*dA*dG*dG*dT*dA*dT*kA*kA*k[5mC]; antisense) [Compound 1009397]”, the “YAP1 (% UT)” value [5] is reported as 44 % UT.

In the case of “1198878 (kT*kT*dT*dA*dA*dA*dG*dT*dG*dT*dA*kT*eG*kT*e[5mC]*kA; antisense) [Compound 1198878]”, the “YAP1 (% UT)” value [2] is reported as 42 % UT.

With “1198438 (kT*dG*dT*dA*dT*dG*dT*d[5mC]*dA*dG*dA*kA*eG*kA*eG*kT; antisense) [Compound 1198438]” the “YAP1 (% UTC)” value [6] was 7 % UTC.

In the case of “1198413 (kT*dT*dT*dA*dG*dG*dA*dT*dG*d[5mC]*dA*kT*eG*kG*eT*kT) [Compound 1198413]”, the “YAP1 (% UTC)” value [1] is reported as 29 % UTC.

“1198884 (kT*kA*dA*dG*dT*dA*dA*dG*dG*dT*dT*kT*e[5mC]*k[5mC]*e[5mC]*kA; antisense) [Compound 1198884]” was tested, and the “YAP1 (% UT)” value [7] was 28 % UT.

In the case of “1197299 (kA*kG*kG*dA*mU*dG*d[5mC]*dA*dT*dG*dG*dT*dT*kT*kT*kT; antisense) [Compound 1197299]”, the “YAP1 (% UT)” value (Table 51, Yap1 mRNA remaining as percent of untreated control (UT), SNU-449 cells, single dose) is reported as 41 % UT.

For “1198912 (kA*kA*d[5mC]*dA*d[5mC]*dT*dG*dA*dG*dG*dT*kA*dT*kA*dA*k[5mC]; antisense) [Compound 1198912]”, the “YAP1 (% UTC)” value (Table 45, Yap1 mRNA as percent of untreated control, SNU-449 cells, single dose) was 78 % UTC.

“1200805 (kG*kA*kG*dG*dT*mA*dT*dA*dA*d[5mC]*dT*dG*dG*kG*k[5mC]*kA; antisense) [Compound 1200805]” was tested, and the “YAP1 (% UT)” value (Table 52, Yap1 mRNA, modified oligonucleotides targeting SEQ ID NO: 1 and 2) was 50 % UT.

In the case of “1198831 (k[5mC]*kA*d[5mC]*dT*dT*dT*dT*dA*d[5mC]*dA*dT*kT*eA*kG*eG*kA; antisense) [Compound 1198831]”, the “YAP1 (% UT)” value [7] is reported as 12 % UT.

“1198757 (kA*eG*kT*dG*d[5mC]*dT*dT*dT*dG*dG*dA*dA*eG*eA*kT*k[5mC]; antisense) [Compound 1198757]” was tested, and the “YAP1 (% UTC)” value [6] was 4 % UTC.

With “1198471 (antisense kA*kT*dA*dT*dT*dA*dG*dA*dG*dT*dA*eT*kG*eT*kG*eG) [Compound 1198471]” the “YAP1 (% UTC)” value (Table 43 experiment, SNU-449 cells, 10,000 cells per well, free uptake, 2,000 nM, approximately 48 hours, RTS36584, Yap1 mRNA normalized to RIBOGREEN, relative to untreated control cells) was 21 % UTC.

In the case of “1198654 (kA*k[5mC]*dT*dT*dT*dT*dA*d[5mC]*dA*dT*dT*dA*kG*eG*kA*eA; antisense) [Compound 1198654]”, the “YAP1 (% UTC)” value [3] is reported as 91 % UTC.

For “1198733 (kG*eG*kT*dA*dT*dA*dA*d[5mC]*dT*dG*dG*dG*e[5mC]*eA*kA*kA; antisense) [Compound 1198733]”, the “YAP1 (% UTC)” value [3] was 47 % UTC.
